Results reported in a melting point compilation (Tetko et al.; mined from patent text by program, amines drawn as free bases though some values may be those of a salt).

Structure (SMILES) | melting point [°C]
CCS(=O)(=O)c1nsc(NC(=O)NC)c1C#N | 258
O=[N+]([O-])C=Cc1ccc(OCc2ccccc2)c(OCc2ccccc2)c1 | 118 to 119
CCCOc1cccc(CO)c1I | 75 to 75.5
CC(C)(C)N1Sc2ccccc2C1O (stereo not drawn) | 114 to 116
COc1cc(S(=O)(=O)c2ccncc2)ccc1[N+](=O)[O-] | 123 to 124
CSC(=O)c1c(C(F)F)nc(C(F)(F)F)c(C(=O)SC)c1NC(C)C | 92 to 94
Cc1cn(C)cc(-c2ccccc2)c1=O | 111 to 113
CCOC(=O)c1coc(=O)cc1S(C)(=O)=O | 95 to 97
CCc1n[nH]c2c1nc(-c1cccnc1)c1ccccc12 | 219 to 220
Clc1ccc(-c2nc(Cc3nnn[nH]3)c(-c3ccccc3)s2)cc1 | 213 to 214
Cc1cccc(NC(=O)NC2N=C(c3ccccc3F)c3ccccc3N(Cc3ncccc3C)C2=O)c1 (racemic) | 216 to 217
Cc1c(Cl)nc(Cl)nc1Cl | 67 to 68
O=Cc1cc(C#Cc2cccc(Br)c2)c[nH]1 | 152 to 156
Cc1ccc(C(=O)c2cccnc2C(=O)O)cc1 | 168 to 170
Cc1nc(Cl)c(C)c(Cl)c1C | 67 to 68
O=C(NCP(=O)(O)c1ccccc1)c1ccccc1 | 158 to 160
O=c1c2cnn(CC3CO3)c2ncn1CC1CO1 (stereo not drawn) | 90 to 95
CNC(=C[N+](=O)[O-])NCCSCc1nc(CN(C)C)sc1C | 104 to 106
O=C(c1ccccc1)c1c[nH]c2ncnc(Nc3cccc(CO)c3)c12 | 273 to 275
Clc1cccc(Nc2nccc(-c3ccnc(Cl)c3)n2)c1 | 144 to 147
O=C1C=CC(O)(c2cnc3ccccc3c2)C=C1 | 183 to 184
O=C(NC1CC1)c1nc(-c2ccccc2)c(-c2ccc(=O)n(Cc3ccccc3)n2)s1 | 151 to 152

Structure (SMILES) | melting point [°C]
O=CNCC=C(c1ccc(-c2ccccc2)cc1)c1ccc(-c2ccccc2)cc1 | 171 to 173
C=CCN(CCC)S(=O)(=O)NC(=O)c1cc(N=C=S)c(F)cc1Cl | 83 to 85
CC(CNc1cccc(C(F)(F)F)c1)Nc1cccc(C(F)(F)F)c1 (stereo not drawn) | 116 to 120
N#CCCCOc1ccc(CNc2ccc(-n3nc(-c4cccnc4)cc3C#N)cc2)cc1 | 128 to 129
CCCCCCCCCCCCCCCC(=O)Nc1cc([N+](=O)[O-])ccc1O | 146 to 148
[N-]=[N+]=Nc1ccc(S(=O)(=O)NCCCCCC(=O)O)cc1 | 126 to 127
OCC[C@@H]1CCCC[C@@H]1c1ccccc1 (relative stereo) | 48 to 50
CCOC(=O)C(Cc1ccc(C(F)(F)F)cc1)C(=O)c1ccc(Oc2ccccc2)cc1 (stereo not drawn) | 67 to 68
Cn1cc(-c2ccccc2)c(=O)c(-c2ccc3ccccc3c2)c1 | 101 to 105
CC(C)(C)NNC(=S)c1ccccc1 | 165 to 168
CC(C)(C)C(=O)c1ccc(CN2C(=O)c3ccccc3C2=O)cc1 | 138 to 140
COC(=O)c1ccc(=O)n(N)c1 | 136 to 137
Nc1cccc2cnc(Cl)cc12 | 176 to 177
O=C(OCc1cc(F)nc(F)c1)c1ccccc1 | 83 to 84
O=C1c2cc([N+](=O)[O-])ccc2CCC1Br (stereo not drawn) | 94 to 96
N#CCc1cc(C(=O)O)cs1 | 154 to 159
Cc1cc2c(cc1-c1csc(C=O)c1)C(C)(C)CCC2(C)C | 144 to 146
CNC(=O)Nc1cc(-c2ccc(S(C)(=O)=O)cc2)c(-c2ccc(F)cc2)s1 | 70 to 75
CCn1cccc1Cc1cccc(NC(N)=O)c1 | 56 to 58
Nc1cc(-n2cc(C(=O)O)c(=O)c3cc(F)c(N4CC(N)C4)nc32)c(F)cc1F | 168 to 170
C=CCOCc1ccc([N+](=O)[O-])cc1Nc1nccc(-c2cccnc2)n1 | 213 to 215
COC(=O)CC1OC(=O)c2ccccc21 (stereo not drawn) | 62 to 63

Structure (SMILES) | melting point [°C]
CCOC(=O)C1=CC2(CCC1S(=O)(=O)Nc1ccc(F)cc1Cl)O[C@H]([C@H](O)CO)[C@@H]([C@H](O)CO)O2 (stereo partly drawn) | 55 to 56
C=CCN1CCC(Nc2ccc(Cl)cc2)CC1 | 90
NN1CN=Cc2c(NC3OC(CO)C(O)C3O)ncnc21 (stereo not drawn) | 209 to 214
O=C1N=C2CCCCN2C12CCNCC2 | 220
COc1ncc(C=O)cc1Br | 94 to 95
Cc1cc(NC(=O)C(C)(O)COc2ccc(CCF)cc2)ccc1[N+](=O)[O-] (stereo not drawn) | 102 to 105
O=C(Cl)N(c1ccc(F)cc1)c1ccc(F)cc1 | 53 to 54
O=c1c(OC(F)F)cn(-c2ccccc2F)nc1-c1ccnn1-c1ccccc1 | 109 to 114
COc1ccc(CNc2n[nH]c3ncnc(Nc4cccc(Cl)c4)c23)cc1OC | 228 to 232
O=c1c([N+](=O)[O-])c(Cl)nc2sc(CCC3CCCCC3)nn12 | 136 to 137
CCn1c(=O)c2[nH]c(/C=C/c3cc(OC)c(OC)cc3Br)nc2n(CC)c1=O | > 285
O=[N+]([O-])c1cc(S(=O)(=O)NCCO)sc1Cl | 99
Nn1c(-c2cncc(Cl)c2)cc2ccccc21 | 154 to 156
CC1(C)CC(=O)c2c(C3CCCCC3)sc(C#N)c2C1 | 129 to 132
Cc1cccc(-c2nc3cnccc3[nH]2)c1 | 202 to 204
Cc1cc(SCC(CS(=O)(=O)c2ccc(-c3ccc(Cl)cc3)cc2)C(=O)O)nc(C)n1 (stereo not drawn) | 170 to 172
CC(C)Oc1ccccc1C=C(C=O)C(C=O)=Cc1ccccc1OC(C)C | 109 to 110
Cc1c(N2CCC(C)(NC(=O)OC(C)(C)C)C2)c(F)c(N)c2c(=O)c(C(=O)O)cn(C3CC3)c12 (stereo not drawn) | 214
O=C1c2sccc2-n2cnc(Cl)c2[C@@H]2CCCN12 | 180 to 183
CCCCc1nc(Cl)c(CNC(=O)OCC)n1Cc1ccc(-c2ccccc2C(=O)O)cc1 | 144 to 147
COc1ccc(S(=O)(=O)C=CC(=O)O)cc1 | 123 to 128
Oc1cc(O)c2cc(-c3ccc(F)cc3)oc2c1 | 189 to 190

Further lines, results first:

melting point [°C] | Structure (SMILES)
201 to 202 | COc1ccc(Nc2nc(N3CCOCC3)nc(-n3c(C(F)F)nc4c(OC)cccc43)n2)cn1
142 to 144 | CCc1ccc(Cl)c(CC)c1NS(=O)(=O)c1cc(S(=O)(=O)Nc2c(CC)ccc(Cl)c2CC)c2cc(O)ccc2c1
193 to 194 | Cc1sc2nc(-c3ccccc3)c(-c3ccc(S(C)(=O)=O)cc3)n2c1C
235 to 237 | O=c1c2c(n(-c3ccccc3)c3ncccc13)CCC2
147 to 148 | COC(=O)c1cccc(-c2nnc(-c3ccc(-c4cccc(C)c4)cc3)o2)c1
164 to 166 | NC(=O)N(O)CCNC(=O)c1cccc(Oc2cc(Cl)cc(Cl)c2)c1
241 to 243 | O=C1CCC(N2C(=O)c3cccc(CNC(=O)Nc4ccc(Cl)c(Cl)c4)c3C2=O)C(=O)N1 (stereo not drawn)
135 | CCOC(=O)c1cnc2cc(F)c(F)cc2c1
143 to 145 | COc1ccc(-c2cc(Sc3ccc([N+](=O)[O-])cc3[N+](=O)[O-])sc2-c2ccc(OC)cc2)cc1
290 to 300 | CC(=O)Nc1c2oc3cc(Cl)ccc3c2nn1C
202 to 203 | CN(c1cc(OC(F)(F)F)cc2cc(C3=NCC(CC(N)=O)S3)[nH]c12)S(=O)(=O)c1cccs1 (stereo not drawn)
240 to 242 | Cc1cccc(-c2ccc(-c3nnc(-c4cccc(C(=O)O)c4)o3)cc2)c1
293 to 294 | CN=C(NC#N)C1=CC2(CCOCC2)Oc2ccc([N+](=O)[O-])cc21
36 to 38 | COc1ccc(OC)c(C(=O)Cl)c1
152 to 154 | COc1cc(-c2csc(-c3ccccc3)n2)cc2oc(=O)c(C)c(C)c12
214 to 216 | OCc1c(F)ccc(-c2ccc3nc(-c4ccc(Cl)cc4)cn3c2)c1F
146 to 148 | CCOc1cc(NC(=O)NS(=O)(=O)c2ccc(C)cc2)ccn1
264 to 267 | COC1=CC(=O)c2cc(O)ccc2C1=O
129 to 130 | Cc1c(Cc2ccccc2)c2c(c(C)c1NC(=O)CC(C)(C)C)CC(C)(C)O2

melting point [°C] | Structure (SMILES)
230 | CCOC(=O)C1=CC(C2CC2)c2nc3cc(F)c(F)cc3nc2C1=O (stereo not drawn)
125 to 126 | CC(=O)C1(c2cccc(OCc3ccc4c(ccc(=O)n4C)c3)c2)CCOCC1
152 | CCc1oc2ccc([N+](=O)[O-])cc2c1C(=O)c1ccc(O)cc1
148 to 151 | CN1C(=O)N(c2c(Cl)cccc2Cl)Cc2cnc(NCCc3ccccc3)nc21
282 | Cn1ncc2[nH]c3ccc(Cc4ccccc4)cc3c(=O)c21
79 to 81 | CCCC(=O)c1cnc2c(OCCCN(C)CCCc3ccccc3)cccc2c1Nc1ccccc1C
99 to 100 | CCC(=O)c1sc(Oc2ccc3c(c2)OCO3)c2c1CCc1cnn(C)c1-2
95 to 100 | COc1ccc(C=CCN2CCc3nc(N)sc3CC2)c(OC)c1
216 to 220 | COC(=O)C1=Cc2cc(-c3ccc(N4CCOCC4)cc3)ccc2N(C(=O)OC)CC1
139 to 140 | COc1ccc(-c2ocnc2-c2cc(OC)c(OC)c(OC)c2)cc1F
180 | CCCOc1ncc(I)cc1C(=O)Nc1c(CC)nn(CCN2CCOCC2)c1C(N)=O
106 to 108 | COC(=O)NCCCn1c(-c2ccc(OC)cc2)csc1=Nc1ccccc1
84 to 86 | CCCOC(C(=O)O)c1ccc2c(c1)C(C)(C)CCC2(C)C (racemic)
81 | O=C(c1ccc(C2=CCCc3ccccc32)cc1)N1Cc2cccn2Cc2ccccc21
112 | CC(C)(C)OC(=O)N1CCC(=O)N1c1ccc2ccccc2n1
143 to 150 | CC(C(=O)O)c1ccc(CC2CCCCC2=NO)cc1 (stereo not drawn)
238 | CCc1ccc(NC2=CC3=NCN(C)C3=CC2(F)C(=O)OC)c(F)c1 (stereo not drawn)
185 to 187 | COc1ccc([N+](=O)[O-])c(OCC(N)=O)c1
